Data as given in patent US12624023B2, “Sulfonylurea derivatives and uses thereof” (NodThera Limited, priority 2019, dated 2026).

Assays:
[1] = tested on: IL-1β release upon NLRP3 activation in human whole blood; assay: Whole blood (WB) assay (IL-1β release, LPS priming + ATP stimulation, HTRF); format: cell-based; conditions: heparin, diluted 9:5 with media, LPS 1 μg/ml 3 h, compound 30 min, ATP 5 mM 1 h, IL-1β by HTRF
Outline: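 Heparinised human whole blood, diluted 9:5 in medium, was primed with LPS (1 μg/ml final) for 3 h. Compound was then added for 30 min, followed by ATP (5 mM final) for 1 h. Secreted IL-1β was measured in the media by HTRF (655/620 nm).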

[2] = tested on: IL-1β release upon NLRP3 activation in peripheral blood mononuclear cells (PBMC); assay: PBMC IC50 determination assay (IL-1β release, LPS priming + ATP stimulation, HTRF); format: cell-based; conditions: PBMC from buffy coats; LPS 1 μg/ml 3 h, compound 30 min, ATP 5 mM 1 h; IL-1β by HTRF
Outline: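 Buffy-coat PBMC were primed with LPS (1 μg/ml) for 3 h, given compound for 30 min, then stimulated with 5 mM ATP for 1 h. IL-1β released into the medium was quantified by HTRF, reading 655 and 620 nm.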

CCc1sc(C(C)C)cc1NC(=O)NS(=O)(=O)N(c1cnn(C)c1)[C@H]1CCCN(C)C1 [Compound 89, 3-[2-Ethyl-5-(propan-2-yl)thiophen-3-yl]-1-[(1-methyl-1H-pyrazol-4-yl)[(3S)-1-methylpiperidin-3-yl]sulfamoyl]urea]
IC50 [1]: 1000 to 3000 nM
IC50 [2]: < 100 nM

Cc1sc(C(C)C)cc1NC(=O)NS(=O)(=O)N(c1cnn(C)c1)[C@H]1CCCN(C)C1 [Compound 90, 1-[(1-Methyl-1H-pyrazol-4-yl)[(3S)-1-methylpiperidin-3-yl]sulfamoyl]-3-[2-methyl-5-(propan-2-yl)thiophen-3-yl]urea]
IC50 [1]: 1000 to 3000 nM
IC50 [2]: 100 to 500 nM

CC(C)c1cc(NC(=O)NS(=O)(=O)N(c2cnn(C3CC3)c2)[C@H]2CCCN(C)C2)c(C(C)C)s1 [Compound 91, 3-[2,5-Bis(propan-2-yl)thiophen-3-yl]-1-[(1-cyclopropyl-1H-pyrazol-4-yl)[(3S)-1-methylpiperidin-3-yl]sulfamoyl]urea]
IC50 [1]: < 1000 nM
IC50 [2]: < 100 nM

CC(C)c1cc(NC(=O)NS(=O)(=O)N(c2cnn(C)c2)[C@H]2C[C@H](F)CN(C)C2)c(C(C)C)s1 [Compound 92, 3-[2,5-Bis(propan-2-yl)thiophen-3-yl]-1-{[(3S,5S)-5-fluoro-1-methylpiperidin-3-yl](1-methyl-1H-pyrazol-4-yl)sulfamoyl}urea]
IC50 [1]: < 1000 nM
IC50 [2]: < 100 nM

CC(C)c1cc(NC(=O)NS(=O)(=O)N(c2cnn(C)c2)C2CN(C)CC(F)(F)C2)c(C(C)C)s1 (stereo not drawn) [Compound 93, 3-[2,5-Bis(propan-2-yl)thiophen-3-yl]-1-[(5,5-difluoro-1-methylpiperidin-3-yl)(1-methyl-1H-pyrazol-4-yl)sulfamoyl]urea]
IC50 [1]: 3000 to 10000 nM
IC50 [2]: 100 to 500 nM

CCc1oc2c(c1NC(=O)NS(=O)(=O)N(c1cnn(C)c1)C1CCCN(C)C1)CCCC2 (stereo not drawn) [Compound 94, 3-(2-Ethyl-4,5,6,7-tetrahydro-1-benzofuran-3-yl)-1-[(1-methyl-1H-pyrazol-4-yl)(1-methylpiperidin-3-yl)sulfamoyl]urea]
IC50 [1]: < 1000 nM
IC50 [2]: 100 to 500 nM

Cc1sc2c(c1NC(=O)NS(=O)(=O)N(c1cnn(C)c1)[C@@H]1CCCN(C)C1)CCC2 [Compound 95, 1-[(1-Methyl-1H-pyrazol-4-yl)[(3R)-1-methylpiperidin-3-yl]sulfamoyl]-3-{2-methyl-4H,5H,6H-cyclopenta[b]thiophen-3-yl}urea]
IC50 [1]: < 1000 nM
IC50 [2]: 100 to 500 nM

CC(C)c1cc(NC(=O)NS(=O)(=O)N(c2cnn(C)c2)[C@H]2C[C@@H](F)CN(C)C2)c(C(C)C)s1 [Compound 96, 3-[2,5-Bis(propan-2-yl)thiophen-3-yl]-1-{[(3S,5R)-5-fluoro-1-methylpiperidin-3-yl](1-methyl-1H-pyrazol-4-yl)sulfamoyl}urea]
IC50 [1]: 3000 to 10000 nM
IC50 [2]: 100 to 500 nM

Cc1sc2c(c1NC(=O)NS(=O)(=O)N(c1cnn(C)c1)C1CCCN(C)C1)CCCC2 (stereo not drawn) [Compound 97, 1-[(1-Methyl-1H-pyrazol-4-yl)(1-methylpiperidin-3-yl)sulfamoyl]-3-(2-methyl-4,5,6,7-tetrahydro-1-benzothiophen-3-yl)urea]
IC50 [1]: < 1000 nM
IC50 [2]: 100 to 500 nM

CN1CCCC(N(c2cnn(C)c2)S(=O)(=O)NC(=O)Nc2c(C(F)(F)F)sc3c2CCC3)C1 (stereo not drawn) [Compound 98, 1-[(1-Methyl-1H-pyrazol-4-yl)(1-methylpiperidin-3-yl)sulfamoyl]-3-[2-(trifluoromethyl)-4H,5H,6H-cyclopenta[b]thiophen-3-yl]urea]
IC50 [1]: 1000 to 3000 nM
IC50 [2]: 100 to 500 nM

CC(C)c1cc(NC(=O)NS(=O)(=O)N(c2cnn(C3CC3)c2F)C2CCCN(C)C2)c(C(C)C)s1 (stereo not drawn) [Compound 99, 3-[2,5-Bis(propan-2-yl)thiophen-3-yl]-1-[(1-cyclopropyl-5-fluoro-1H-pyrazol-4-yl)(1-methylpiperidin-3-yl)sulfamoyl]urea]
IC50 [1]: 1000 to 3000 nM
IC50 [2]: < 100 nM

Cc1cc(NC(=O)NS(=O)(=O)N(c2cnn(C)c2)C2CCN(C)CC2)c(C(C)C)s1 [Compound 100, 1-[(1-Methyl-1H-pyrazol-4-yl)(1-methylpiperidin-4-yl)sulfamoyl]-3-[5-methyl-2-(propan-2-yl)thiophen-3-yl]urea]
IC50 [1]: < 1000 nM
IC50 [2]: 100 to 500 nM

Cc1cc(NC(=O)NS(=O)(=O)N(c2cnn(C)c2F)C2CCN(C)CC2)c(C(C)C)s1 [Compound 101, 1-[(5-Fluoro-1-methyl-1H-pyrazol-4-yl)(1-methylpiperidin-4-yl)sulfamoyl]-3-[5-methyl-2-(propan-2-yl)thiophen-3-yl]urea]
IC50 [1]: < 1000 nM
IC50 [2]: < 100 nM

COc1sc2c(c1NC(=O)NS(=O)(=O)N(c1cnn(C)c1)C1CCCN(C)C1)CCC2 (stereo not drawn) [Compound 102, 3-{2-Methoxy-4H,5H,6H-cyclopenta[b]thiophen-3-yl}-1-[(1-methyl-1H-pyrazol-4-yl)(1-methylpiperidin-3-yl)sulfamoyl]urea]
IC50 [1]: 1000 to 3000 nM
IC50 [2]: 100 to 500 nM

Cc1cc(NC(=O)NS(=O)(=O)N(c2cnn(C3CC3)c2)[C@H]2CCCN(C)C2)c(C(C)C)s1 [Compound 103, 1-[(1-Cyclopropyl-1H-pyrazol-4-yl)[(3S)-1-methylpiperidin-3-yl]sulfamoyl]-3-[5-methyl-2-(propan-2-yl)thiophen-3-yl]urea]
IC50 [1]: < 1000 nM
IC50 [2]: < 100 nM

Cc1cc(NC(=O)NS(=O)(=O)N(c2cnn(C3CC3)c2)[C@@H]2CCCN(C)C2)c(C(C)C)s1 [Compound 104, 1-[(1-Cyclopropyl-1H-pyrazol-4-yl)[(3R)-1-methylpiperidin-3-yl]sulfamoyl]-3-[5-methyl-2-(propan-2-yl)thiophen-3-yl]urea]
IC50 [1]: < 1000 nM
IC50 [2]: < 100 nM

Cc1cc(NC(=O)NS(=O)(=O)N(c2cnn(C3CC3)c2)[C@@H]2CCCN(C)C2)c(C2CC2)s1 [Compound 106, 1-[(1-Cyclopropyl-1H-pyrazol-4-yl)[(3R)-1-methylpiperidin-3-yl]sulfamoyl]-3-(2-cyclopropyl-5-methylthiophen-3-yl)urea]
IC50 [1]: 1000 to 3000 nM
IC50 [2]: 100 to 500 nM

Cc1cc(NC(=O)NS(=O)(=O)N(c2cnn(C)c2)[C@H]2CCCN(C)C2)c(C2CC2)s1 [Compound 107, 3-(2-Cyclopropyl-5-methylthiophen-3-yl)-1-[(1-methyl-1H-pyrazol-4-yl)[(3S)-1-methylpiperidin-3-yl]sulfamoyl]urea]
IC50 [1]: 1000 to 3000 nM
IC50 [2]: 100 to 500 nM

Cc1cc(NC(=O)NS(=O)(=O)N(c2cnn(C)c2)[C@@H]2CCCN(C)C2)c(C2CC2)s1 [Compound 108, 3-(2-Cyclopropyl-5-methylthiophen-3-yl)-1-[(1-methyl-1H-pyrazol-4-yl)[(3R)-1-methylpiperidin-3-yl]sulfamoyl]urea]
IC50 [1]: 1000 to 3000 nM
IC50 [2]: < 100 nM

Cc1sc2c(c1NC(=O)NS(=O)(=O)N(c1cnn(C)c1)C1CCN(C)CC1)CCC2 [Compound 109, 1-[(1-Methyl-1H-pyrazol-4-yl)(1-methylpiperidin-4-yl)sulfamoyl]-3-{2-methyl-4H,5H,6H-cyclopenta[b]thiophen-3-yl}urea]
IC50 [1]: 1000 to 3000 nM
IC50 [2]: 100 to 500 nM

Cc1sc2c(c1NC(=O)NS(=O)(=O)N(c1cnn(C)c1)[C@H]1C[C@H](F)CN(C)C1)CCC2 [Compound 110, 1-{[(3S,5S)-5-Fluoro-1-methylpiperidin-3-yl](1-methyl-1H-pyrazol-4-yl)sulfamoyl}-3-{2-methyl-4H,5H,6H-cyclopenta[b]thiophen-3-yl}urea]
IC50 [1]: 1000 to 3000 nM
IC50 [2]: 100 to 500 nM

Cc1cc(NC(=O)NS(=O)(=O)N(c2cnn(C)c2)[C@H]2C[C@H](F)CN(C)C2)c(C(C)C)s1 [Compound 111, 1-{[(3S,5S)-5-Fluoro-1-methylpiperidin-3-yl](1-methyl-1H-pyrazol-4-yl)sulfamoyl}-3-[5-methyl-2-(propan-2-yl)thiophen-3-yl]urea]
IC50 [1]: 1000 to 3000 nM
IC50 [2]: 100 to 500 nM

Cc1cc(NC(=O)NS(=O)(=O)N(c2cnn(C3CC3)c2)C2CCCN(C)C2)c(C(C)C)s1 (stereo not drawn) [Compound 112, 1-[(1-Cyclopropyl-1H-pyrazol-4-yl)(1-methylpiperidin-3-yl)sulfamoyl]-3-[5-methyl-2-(propan-2-yl)thiophen-3-yl]urea]
IC50 [1]: < 1000 nM
IC50 [2]: < 100 nM

Cc1sc2c(c1NC(=O)NS(=O)(=O)N(c1cnn(C3CC3)c1F)C1CCCN(C)C1)CCC2 (stereo not drawn) [Compound 113, 1-[(1-Cyclopropyl-5-fluoro-1H-pyrazol-4-yl)(1-methylpiperidin-3-yl)sulfamoyl]-3-{2-methyl-4H,5H,6H-cyclopenta[b]thiophen-3-yl}urea]
IC50 [1]: < 1000 nM
IC50 [2]: < 100 nM

Cc1cc(NC(=O)NS(=O)(=O)N(c2cnn(C3CC3)c2F)C2CCCN(C)C2)c(C(C)C)s1 (stereo not drawn) [Compound 114, 1-[(1-Cyclopropyl-5-fluoro-1H-pyrazol-4-yl)(1-methylpiperidin-3-yl)sulfamoyl]-3-[5-methyl-2-(propan-2-yl)thiophen-3-yl]urea]
IC50 [1]: < 1000 nM
IC50 [2]: < 100 nM

Cc1cc(NC(=O)NS(=O)(=O)N(c2cnn(C)c2F)C2CCCN(C)C2)c(C(C)C)s1 (stereo not drawn) [Compound 115, 1-[(5-Fluoro-1-methyl-1H-pyrazol-4-yl)(1-methylpiperidin-3-yl)sulfamoyl]-3-[5-methyl-2-(propan-2-yl)thiophen-3-yl]urea]
IC50 [1]: < 1000 nM
IC50 [2]: < 100 nM

Cc1sc2c(c1NC(=O)NS(=O)(=O)N(c1cnn(C)c1)[C@H]1CCCN(C)C1)CCC2 [Compound 116, 1-[(1-Methyl-1H-pyrazol-4-yl)[(3S)-1-methylpiperidin-3-yl]sulfamoyl]-3-{2-methyl-4H,5H,6H-cyclopenta[b]thiophen-3-yl}urea]
IC50 [1]: < 1000 nM
IC50 [2]: < 100 nM
